According to patent publication US20250340543A1, “GPR84 ANTAGONISTS AND USES THEREOF” (Liminal BioSciences Limited, priority 2021, published 2025):

Target: GPR84 (Homo sapiens (Human), UniProt Q9NQS5)
Test: Gai biosensor BRET assay (GPR84-mediated activation of Gai, antagonist mode against agonist ZQ-16)
Assay type: cell-based
Settings: for inhibition at 10 µM: compound tested at 10 μM (concentration code D); for inhibition at 2 µM: compound tested at 2 μM (concentration code A); for IC50: HEK293 cells, 200 nmol/L GPR84 agonist ZQ-16, read-out: hGPR84 IC50
How it was run: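 Transiently transfected HEK293 cells expressing GPR84, Gαi2-Rluc8, GFP10-Gγ2 and Gβ1, in Tyrode's buffer pH 7.5. Compounds pre-incubated 5 min at 37° C, then 200 nmol/L ZQ-16 for 5 min at room temperature; BRET² with coelenterazine 400A, ligand-promoted net BRET after background and vehicle subtraction.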

Chain of GPR84 (Q9NQS5 whole entry): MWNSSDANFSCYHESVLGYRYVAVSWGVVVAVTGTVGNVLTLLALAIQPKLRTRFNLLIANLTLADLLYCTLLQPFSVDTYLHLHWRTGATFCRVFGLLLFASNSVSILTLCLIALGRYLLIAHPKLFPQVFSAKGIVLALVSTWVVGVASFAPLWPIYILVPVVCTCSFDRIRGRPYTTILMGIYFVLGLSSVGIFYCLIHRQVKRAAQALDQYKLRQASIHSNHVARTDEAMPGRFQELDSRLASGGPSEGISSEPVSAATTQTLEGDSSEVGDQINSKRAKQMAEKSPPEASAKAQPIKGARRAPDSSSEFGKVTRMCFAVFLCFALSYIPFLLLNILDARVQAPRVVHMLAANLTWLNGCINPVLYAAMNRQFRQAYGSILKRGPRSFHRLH

| inhibition at 10 µM [%] | Structure (SMILES) | other results |
| --- | --- | --- |
| 25 to 50 | Cc1cc(OCc2ncccn2)cc(=O)n1C(C)c1ccc(C#CC2CC2)nc1 (stereo not shown) [Compound I-287] | – |
| 25 to 50 | Cc1cc(OCc2ncccn2)cc(=O)n1[C@H](C)c1ccc(C#CC2CC2)nc1 [Compound I-288] | – |
| 25 to 50 | Cc1cc(OCc2ncccn2)cc(=O)n1C(C)c1ccc(C#CC2CC2)s1 (stereo not shown) [Compound I-292] | – |
| < 25 | Cc1ccc([C@@H](C)n2c(C)cc(OCc3ncccn3)cc2=O)cc1 [Compound I-299] | – |
| < 25 | Cc1cc(OCc2ncccn2)cc(=O)n1[C@H](C)c1ccc(Cl)cc1 [Compound I-304] | – |
| 25 to 50 | Cc1cc(OCc2ncccn2)cc(=O)n1[C@H](C)c1ccc(CCC2CC2)cc1 [Compound I-310] | – |
| > 75 | Cc1cc(OCc2ncccn2)cc(=O)n1[C@H](C)c1ccc(C#CC2CCC2)cc1 [Compound I-314] | – |
| > 75 | CC[C@H](c1ccc(C#CC2CC2)cc1)n1c(C)cc(OCc2ncccn2)cc1=O [Compound I-317] | – |
| 50 to 75 | Cc1cc(OCc2ncccn2)nc(=O)n1C(C)c1ccc(C#CC2CC2)cc1 (stereo not shown) [Compound I-320] | – |
| > 75 | CC(c1ccc(C#CC2CC2)cc1)n1c(Cl)cc(OCc2ncccn2)cc1=O (stereo not shown) [Compound I-321] | – |
| < 25 | Cc1cc(OCc2ncccn2)cc(=O)n1[C@H](C)c1ccc(C2CC2)cc1 [Compound I-322] | – |
| > 75 | Cc1cc(OCc2ncccn2)cc(=O)n1C(CC(F)(F)F)c1ccc(C#CC2CC2)cc1 (stereo not shown) [Compound I-324] | IC50: < 5 µM |
| > 75 | Cc1cc(OCc2ncccn2)cc(=O)n1[C@H](C)c1ccc(C#CC2CC2)c(F)c1 [Compound I-325] | IC50: < 5 µM |
| 50 to 75 | Cc1cc(OCc2ncccc2F)cc(=O)n1C(C)c1ccc(C#CC2CC2)nc1 (stereo not shown) [Compound I-327] | – |
| < 25 | Cc1cc(OCc2ncccn2)cc(=O)n1C(C)c1cnc(C#CC2CC2)nc1 (stereo not shown) [Compound I-340] | – |
| < 25 | C#Cc1ccc(C(C)n2c(C)cc(OCc3ncccn3)cc2=O)cc1 (stereo not shown) [Compound I-353] | – |
| > 75 | Cc1cc(OCc2ncccn2)cc(=O)n1C(C)c1cc(F)c(C#CC2CC2)c(F)c1 (stereo not shown) [Compound I-362] | – |
| > 75 | Cc1cc(OCc2cncnc2)cc(=O)n1C(C)c1ccc(C#CC2CC2)c(F)c1 (stereo not shown) [Compound I-364] | IC50: < 5 µM |
| > 75 | Cc1cc(OCc2ncco2)cc(=O)n1C(C)c1ccc(C#CC2CC2)c(F)c1 (stereo not shown) [Compound I-365] | – |
| > 75 | Cc1cc(OCc2ncccn2)cc(=O)n1C(C)c1ccc(C#CC2CCC2)c(F)c1 (stereo not shown) [Compound I-366] | – |
| > 75 | Cc1cc([C@@H](C)n2c(C)cc(OCc3ncccn3)cc2=O)ccc1C#CC1CC1 [Compound I-373] | – |

Continued, compound first:

| Structure (SMILES) | inhibition at 10 µM [%] | other results |
| --- | --- | --- |
| Cc1ccc(C#CC2CC2)cc1Cn1c(C)cc(OCc2ncccn2)cc1=O [Compound I-289] | – | inhibition at 2 µM: < 25% |
| Cc1cc(OCc2ccccn2)cc(=O)n1[C@H](C)c1ccc(C#CC2CC2)cc1 [Compound I-290] | – | IC50: < 5 µM; inhibition at 2 µM: > 75% |
| Cc1cc(OCc2cccnn2)cc(=O)n1[C@H](C)c1ccc(C#CC2CC2)cc1 [Compound I-291] | – | IC50: < 5 µM; inhibition at 2 µM: > 75% |
| Cc1cc(OCc2nccs2)cc(=O)n1[C@H](C)c1ccc(C#CC2CC2)cc1 [Compound I-293] | – | IC50: < 5 µM; inhibition at 2 µM: > 75% |
| Cc1cc(OCc2cscn2)cc(=O)n1[C@H](C)c1ccc(C#CC2CC2)cc1 [Compound I-294] | > 75 | IC50: < 5 µM |
| Cc1cc(OCn2cccn2)cc(=O)n1[C@H](C)c1ccc(C#CC2CC2)cc1 [Compound I-295] | > 75 | – |
| Cc1cc(OCc2ncco2)cc(=O)n1[C@H](C)c1ccc(C#CC2CC2)cc1 [Compound I-296] | > 75 | IC50: < 5 µM |
| Cc1cc(OCc2ccccc2Cl)cc(=O)n1[C@H](C)c1ccc(C#CC2CC2)cc1 [Compound I-297] | < 25 | – |
| Cc1cc(OCc2ncccn2)cc(=O)n1[C@H](C)c1ccc(C#CC(C)C)cc1 [Compound I-298] | 50 to 75 | – |
| Cc1cc(OCc2ncccn2)cc(=O)n1[C@H](C)c1ccccc1 [Compound I-300] | < 25 | – |
| COc1ccc([C@@H](C)n2c(C)cc(OCc3ncccn3)cc2=O)cc1 [Compound I-301] | < 25 | – |
| Cc1cc(OCc2nccn2C)cc(=O)n1[C@H](C)c1ccc(C#CC2CC2)cc1 [Compound I-303] | – | IC50: < 5 µM; inhibition at 2 µM: > 75% |
| Cc1cc(OCc2cccnc2Cl)cc(=O)n1[C@H](C)c1ccc(C#CC2CC2)cc1 [Compound I-305] | > 75 | – |
| Cc1cc(OCc2cc(Cl)ccn2)cc(=O)n1[C@H](C)c1ccc(C#CC2CC2)cc1 [Compound I-306] | 25 to 50 | – |
| Cc1cc(OCc2ncccn2)cc(=O)n1C(C)c1ccc(Oc2ccccc2)cc1 (stereo not shown) [Compound I-307] | < 25 | – |
| Cc1cc(OCn2ccnc2)cc(=O)n1[C@H](C)c1ccc(C#CC2CC2)cc1 [Compound I-308] | > 75 | – |
| CCCCCc1ccc([C@@H](C)n2c(C)cc(OCc3ncccn3)cc2=O)cc1 [Compound I-309] | < 25 | – |
| Cc1cc(OCc2cncs2)cc(=O)n1[C@H](C)c1ccc(C#CC2CC2)cc1 [Compound I-311] | – | inhibition at 2 µM: > 75% |
| Cc1cc(OCc2ncccn2)cc(=O)n1C(C)c1ccc(C#CCNc2ccccc2)cc1 (stereo not shown) [Compound I-312] | < 25 | – |
| Cc1cc(OCc2cn(C)cn2)cc(=O)n1[C@H](C)c1ccc(C#CC2CC2)cc1 [Compound I-313] | > 75 | – |
| Cc1cc(OCc2cnccc2Cl)cc(=O)n1[C@H](C)c1ccc(C#CC2CC2)cc1 [Compound I-315] | – | IC50: < 5 µM; inhibition at 2 µM: > 75% |
| CNC(=O)c1ccc([C@@H](C)n2c(C)cc(OCc3ncccn3)cc2=O)cc1 [Compound I-316] | < 25 | – |
| COc1cccnc1COc1cc(C)n([C@H](C)c2ccc(C#CC3CC3)cc2)c(=O)c1 [Compound I-318] | > 75 | IC50: < 5 µM |
| Cc1cc(OCc2cnc(C3CC3)cn2)cc(=O)n1[C@H](C)c1ccc(C#CC2CC2)cc1 [Compound I-323] | > 75 | – |

| Structure (SMILES) | inhibition at 10 µM [%] | other results |
| --- | --- | --- |
| Cc1cc(OCc2ncccn2)cc(=O)n1[C@@H](C)c1ccc(C#CC2CC2)c(F)c1 [Compound I-326] | – | IC50: 10 to 15 µM; inhibition at 1 µM (compound tested at 1 μM (concentration code A*)): 25 to 50% |
| Cc1cc(OCc2ncccn2)cc(=O)n1[C@H](C)c1ccc(C#Cc2ccccc2)cc1 [Compound I-329] | < 25 | – |
| CCCOc1ccc(C(C)n2c(C)cc(OCc3ncccn3)cc2=O)cc1 (stereo not shown) [Compound I-343] | < 25 | – |
| Cc1cc(OCc2ncccn2)cc(=O)n1[C@H](C)c1ccc(-c2ccccc2)cc1 [Compound I-344] | < 25 | – |
| CCCCCCOc1ccc(C(C)n2c(C)cc(OCc3ncccn3)cc2=O)cc1 (stereo not shown) [Compound I-345] | < 25 | – |
| Cc1cc(OCc2ncccn2)cc(=O)n1[C@H](C)c1ccc(-c2cnc(C3CC3)nc2)cc1 [Compound I-347] | < 25 | – |
| Cc1cc(OCc2nccn2C(C)C)cc(=O)n1[C@H](C)c1ccc(C#CC2CC2)cc1 [Compound I-348] | > 75 | – |
| Cc1cc(OCc2cncn2C)cc(=O)n1[C@H](C)c1ccc(C#CC2CC2)cc1 [Compound I-349] | – | inhibition at 2 µM: > 75% |
| Cc1cc(OCc2ccn(C)n2)cc(=O)n1[C@H](C)c1ccc(C#CC2CC2)cc1 [Compound I-350] | > 75 | – |
| Cc1cc(OCc2ccnn2C)cc(=O)n1[C@H](C)c1ccc(C#CC2CC2)cc1 [Compound I-351] | > 75 | IC50: < 5 µM |
| Cc1cc(OCc2cnn(C)c2)cc(=O)n1[C@H](C)c1ccc(C#CC2CC2)cc1 [Compound I-352] | > 75 | – |
| Cc1cc(OCc2ncccn2)cc(=O)n1C(C)c1ccc2cc(C3CC3)ccc2c1 (stereo not shown) [Compound I-354] | – | inhibition at 2 µM: < 25% |
| Cc1cc(OCc2ncc[nH]2)cc(=O)n1[C@H](C)c1ccc(C#CC2CC2)cc1 [Compound I-355] | 25 to 50 | – |
| CCn1ccnc1COc1cc(C)n([C@H](C)c2ccc(C#CC3CC3)cc2)c(=O)c1 [Compound I-356] | – | IC50: < 5 µM; inhibition at 2 µM: > 75% |
| Cc1cc(OCc2cn(C)nn2)cc(=O)n1[C@H](C)c1ccc(C#CC2CC2)cc1 [Compound I-357] | – | IC50: < 5 µM; inhibition at 2 µM: > 75% |
| Cc1cc(OCc2cnn(C)n2)cc(=O)n1[C@H](C)c1ccc(C#CC2CC2)cc1 [Compound I-358] | > 75 | – |
| Cc1cc(OCc2cnnn2C)cc(=O)n1[C@H](C)c1ccc(C#CC2CC2)cc1 [Compound I-359] | > 75 | IC50: < 5 µM |
| Cc1cc(NC(=O)c2ncccn2)cc(=O)n1[C@H](C)c1ccc(C#CC2CC2)cc1 [Compound I-360] | > 75 | IC50: < 5 µM |
| Cc1cc(OCc2nccn2C)cc(=O)n1C(C)c1ccc(C#CC2CC2)c(F)c1 (stereo not shown) [Compound I-361] | – | IC50: < 5 µM; inhibition at 2 µM: > 75% |
| Cc1cc(OCc2cccnn2)cc(=O)n1C(C)c1ccc(C#CC2CC2)c(F)c1 (stereo not shown) [Compound I-363] | – | IC50: < 5 µM; inhibition at 2 µM: > 75% |
| Cc1cc(OCc2ncccn2)cc(=O)n1C(C)C1CCN(c2ccc(C3CC3)cc2)CC1 (stereo not shown) [Compound I-368] | < 25 | – |
| Cc1cc(OCc2c(F)ccc[n+]2[O-])cc(=O)n1[C@H](C)c1ccc(C#CC2CC2)cc1 [Compound I-369] | > 75 | – |
| Cc1cc(N(C)Cc2ncccn2)cc(=O)n1[C@H](C)c1ccc(C#CC2CC2)cc1 [Compound I-372] | > 75 | – |
| Cc1cc(OC[C@@H]2COCCO2)cc(=O)n1[C@H](C)c1ccc(C#CC2CC2)cc1 [Compound I-396] | – | IC50: < 5 µM |
